In US20100081679A1, “DIAMINOPYRIMIDINES AS FUNGICIDES” (Bayer CropScience AG, priority 2007, published 2010):
Marks after values point to notes of the source that are not given here. Values belong to the compound of their own block, whether it stands above or below them.

Assay: logP determination via retention times, calibrated with unbranched alkan-2-ones
Format: physicochemical
Conditions: for chromatographic logP: pH 2.3, read-out: logP (pH2.3)
[1] = HPLC on reversed-phase C18, method *: 40° C., mobile phase 0.1% aqueous formic acid and acetonitrile, linear gradient 10% to 95% acetonitrile
[2] = HPLC on reversed-phase C18, method **: 43° C., mobile phase 0.1% aqueous phosphoric acid and acetonitrile, linear gradient 10% to 95% acetonitrile
[3] = method *: HPLC reversed-phase C18, 40° C., 0.1% aqueous formic acid and acetonitrile, linear gradient 10% to 95% acetonitrile
[4] = method *: HPLC reversed-phase C 18, temperature 40° C., mobile phase 0.1% aqueous formic acid and acetonitrile, linear gradient 10% to 95% acetonitrile
[5] = HPLC on reversed-phase C 18, EEC Directive 79/831 Annex V.A8, method *: 40° C., 0.1% aqueous formic acid and acetonitrile, linear gradient 10% to 95% acetonitrile
[6] = HPLC on reversed-phase C18, method *: 40° C., 0.1% aqueous formic acid and acetonitrile, linear gradient 10% to 95% acetonitrile
[7] = HPLC on reversed-phase C18 column (EEC Directive 79/831 Annex V.A8), method *: 40° C., 0.1% aqueous formic acid and acetonitrile, linear gradient 10% to 95% acetonitrile
[8] = method *: HPLC, reversed-phase C 18, 40° C., mobile phase 0.1% aqueous formic acid and acetonitrile, linear gradient from 10% to 95% acetonitrile
[9] = HPLC reversed-phase C 18, EEC Directive 79/831 Annex V.A8, method *: 40° C., 0.1% aqueous formic acid and acetonitrile, linear gradient 10% to 95% acetonitrile
[10] = method **: HPLC reversed-phase C 18, 43° C., 0.1% aqueous phosphoric acid and acetonitrile, linear gradient 10% to 95% acetonitrile

Structure (SMILES): CC(C)(C)NS(=O)(=O)c1ccc(Nc2ncc(Cl)c(NC3CC3)n2)cc1 [compound 306]
logP [2]: 2.3**

Structure (SMILES): N#Cc1cnc(Nc2ccc(F)cc2)nc1NC1CC1 [compound 616]
logP [4]: 2.58*

Structure (SMILES): O=C1OCCN1c1ccc(Nc2ncc(Cl)c(NC3CC3)n2)cc1 [compound 83]
logP [3]: 1.39*

Structure (SMILES): FC(F)Sc1ccc(Nc2ncc(Cl)c(NCC3CC3)n2)cc1 [compound 559]
logP [5]: 2.91*

Structure (SMILES): FC(F)C(F)(F)Oc1ccc(Nc2ncc(Cl)c(NC3CC3)n2)cc1 [compound 108]
logP [6]: 2.65*

Structure (SMILES): FC(F)(F)c1ccc(Nc2ncc(Cl)c(NC3CC3)n2)cc1 [compound 277]
logP [1]: 3.14*

Structure (SMILES): CN(C(=O)C(C)(C)C)c1ccc(Nc2ncc(Cl)c(NCC3CC3)n2)cc1 [compound 525]
logP [5]: 2.02*

Structure (SMILES): COc1cc(CC#N)ccc1Nc1ncc(Cl)c(NC2CC2)n1 [compound 817]
logP [9]: 1.82*

Structure (SMILES): Oc1ccc(Nc2ncc(Cl)c(NC3CC3)n2)cc1 [Example 75]
logP [3]: 1.12*

Structure (SMILES): COCC(C)NC(=O)c1cccc(Nc2ncc(Cl)c(NC3CC3)n2)c1 (centres unmarked) [compound 796]
logP [9]: 1.47*

Structure (SMILES): Clc1cnc(Nc2ccccc2)nc1NCC1CC1 [Example 10]
logP [10]: 1.85**

Structure (SMILES): O=S(=O)(Cc1cccc(Nc2ncc(Cl)c(NC3CC3)n2)c1)N1CCCCC1 [compound 262]
logP [7]: 2.24*

Structure (SMILES): C=CC(=O)Nc1cccc(Nc2ncc(Br)c(NC3CC3)n2)c1 [compound 754]
logP [6]: 1.54*

Structure (SMILES): CN(C)S(=O)(=O)c1cccc(Nc2ncc(Cl)c(NC3CC3)n2)c1 [Example 28]
logP [10]: 2.04**

Structure (SMILES): O=C1CCCN1c1cc(Nc2ncc(Cl)c(NC3CC3)n2)ccc1F [compound 536]
logP [5]: 1.53*

Further lines, results first:

logP [1]: 2.55*
Structure (SMILES): CO/N=C/c1ccc(Nc2ncc(Br)c(NC3CC3)n2)cc1 [compound 338]

chromatographic logP: 2.51
Structure (SMILES): Clc1ncc(Cl)c(NCC2CC2)n1 [2,5-dichloro-N-(cyclopropylmethyl)pyrimidine-4-amine]

logP [3]: 2.51*
Structure (SMILES): CN(C)S(=O)(=O)c1ccc(Nc2ncc(Br)c(NCC3CC3)n2)cc1 [compound 449]

logP (method **: HPLC reversed-phase C 18, temperature 43° C., mobile phase 0.1% aqueous phosphoric acid and acetonitrile, linear gradient 10% to 95% acetonitrile): 2.27**
logP [4]: 2.18*;
Structure (SMILES): CC(=O)Nc1ccc(Nc2ncc(C(F)(F)F)c(NC3CC3)n2)cc1Cl [compound 648]

logP [4]: 1.51*
Structure (SMILES): COc1cccc(Nc2ncc(F)c(NC3CC3)n2)c1 [compound 573]

logP [6]: 1.66*
Structure (SMILES): N#CCc1cccc(Nc2ncc(Cl)c(NC3CC3)n2)c1 [compound 712]

logP [4]: 1.05*
Structure (SMILES): CNC(=O)c1ccc(Nc2ncc(F)c(NC3CC3)n2)cc1 [compound 584]

logP [5]: 3.07*
Structure (SMILES): FC(F)Sc1ccc(Nc2ncc(Br)c(NCC3CC3)n2)cc1 [compound 470]

logP [7]: 2.9*
Structure (SMILES): Clc1cnc(Nc2cccc(-c3cccs3)c2)nc1NC1CC1 [compound 197]

logP [8]: 2.09*
Structure (SMILES): Cc1cccc(Nc2ncc(Cl)c(NCC3CC3)n2)c1 [compound 1051]

logP [10]: 2.75**
Structure (SMILES): CCCCNS(=O)(=O)c1ccc(Nc2ncc(Cl)c(NCC3CC3)n2)cc1 [compound 23]

logP [6]: 2.06*
Structure (SMILES): Clc1cnc(Nc2ccc(-c3cscn3)cc2)nc1NCC1CC1 [compound 689]

logP [1]: 2.18*
Structure (SMILES): CSc1ccc(Nc2ncc(Br)c(NC3CC3)n2)cc1 [compound 353]

logP [5]: 2.45*
Structure (SMILES): CSc1cc(Nc2ncc(Cl)c(NCC3CC3)n2)ccc1C [compound 547]

logP [6]: 3.89*
Structure (SMILES): CC(Cl)c1cccc(Nc2ncc(C(F)(F)F)c(NCC3CC3)n2)c1 (centres unmarked) [compound 703]

logP [5]: 1.17*
Structure (SMILES): O=CNc1ccc(Nc2ncc(Cl)c(NCC3CC3)n2)cc1 [compound 544]

logP [8]: 2.11*
Structure (SMILES): Clc1cnc(Nc2ccc3c(c2)CCC3)nc1NC1CC1 [compound 1000]

logP (method **: HPLC, reversed-phase C 18, 43° C., mobile phase 0.1% aqueous phosphoric acid and acetonitrile, linear gradient from 10% to 95% acetonitrile): 3.54**
Structure (SMILES): C=CCOc1cccc(Nc2ncc(C(F)(F)F)c(NC3CC3)n2)c1 [compound 1024]

chromatographic logP: 1.97
Structure (SMILES): Clc1ncc(Br)c(NC2CC2)n1 [5-bromo-2-chloro-N-cyclopropylpyrimidine-4-amine]

logP [4]: 1.38*
Structure (SMILES): CCN(C(C)=O)c1ccc(Nc2ncc(F)c(NC3CC3)n2)cc1 [compound 581]

logP [2]: 0.48**
logP [1]: 0.45*;
Structure (SMILES): Nc1ccc(Nc2ncc(Cl)c(NC3CC3)n2)cc1 [compound 272]
